pIC50: −log10 of the molar value.

We go through eleven compounds from patent publication US7419984B2, “Pyrimidines and uses thereof” (Cell Therapeutics, Inc., priority 2002, dated 2008).

The target in the experiment is T1, human LPAAT-β (Homo sapiens, UniProt O15120).
T1 construct: the full-length human LPAAT-β cDNA was amplified by PCR; poly-histidine tag (N); made in house; host or cells: Sf9 insect cells (baculovirus, pFastBac HTc); the membrane fraction was used as the enzyme
T1 sequence (O15120 24-278): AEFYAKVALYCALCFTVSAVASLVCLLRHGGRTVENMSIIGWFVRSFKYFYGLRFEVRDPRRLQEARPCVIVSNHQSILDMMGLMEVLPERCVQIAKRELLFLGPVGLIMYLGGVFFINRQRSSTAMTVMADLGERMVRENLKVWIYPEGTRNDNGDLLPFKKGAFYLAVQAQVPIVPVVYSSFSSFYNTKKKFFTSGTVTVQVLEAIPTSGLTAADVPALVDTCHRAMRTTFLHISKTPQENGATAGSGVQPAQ
Nature of the experiment: LPAAT-β cell-free assay. It counts as biochemical. The settings on record: Sf9 cell membrane overexpressing recombinant LPAAT-β. In short, it runs like this:
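Membranes from Sf9 cells expressing His/myc-tagged full-length human LPAAT-β were used in HEPES-saline pH 7.5 with 1 mg/ml BSA. Compound was added from a 200 μM DMSO stock, and reaction with 18:1-CoA and sn-1-18:1 lysoPA (1 mM stocks) ran 25 min at RT. Released CoA was detected with DTNB at 405 nm; a radiometric variant used 200 μM [14C]18:1-CoA and 200 μM lysoPA.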

The pIC50 is the IC50 on a negative log10 scale, so that one unit is a factor of ten. In the case of `COc1ccc(Cl)cc1-c1cc(Nc2ccc(O)cc2)nc(N)n1` [Example 6, 4-[2-Amino-6-(5-chloro-2-methoxy-phenyl)-pyrimidin-4-ylamino]-phenol], the pIC50 was 6.35.

As to `Nc1nc(Nc2ccc(C(F)(F)F)cc2)cc(-c2cccc(Br)c2)n1` [Example 119, 6-(3-Bromo-phenyl)-N*4*-(4-trifluoromethyl-phenyl)-pyrimidine-2,4-diamine], the pIC50 is 6.21.

For the compound `COc1ccc(Br)cc1-c1cc(Nc2ccc(C#N)cc2)nc(N)n1` [Example 160, 4-[2-Amino-6-(5-bromo-2-methoxy-phenyl)-pyrimidin4-ylamino]-benzonitrile], the pIC50 is 7.42.

For the compound `Cc1ccc(Cl)cc1-c1cc(Nc2ccc(C(F)(F)F)nc2)nc(N)n1` [Example 126, 6-(5-chloro-2-methylphenyl)-N*4*-(6-trifluoromethylpyridin-3-yl)pyrimidine-2,4-diamine], the pIC50 is 6.30.

On to `COc1ccc(Cl)cc1-c1nc(N)nc(Nc2ccc3cn[nH]c3c2)c1Br` [Example 52, 5-Bromo-6-(5-chloro-2-methoxy-phenyl)-N*4*-(1H-indazol-6-yl)-pyrimidine-2,4-diamine], for which the pIC50 was 6.30.

For `CCOc1ccc(Cl)cc1-c1cc(Nc2ccc(C(C)=O)cc2)nc(N)n1` [Example 121, 1-{4-[2-amino-6-(5-chloro-2-ethoxyphenyl)pyrimidin-4-ylamino]phenyl}ethanone], the pIC50 is 7.31.

For the compound `Nc1nc(Nc2ccc(CCO)cc2)cc(-c2cc(Cl)ccc2OCc2ccccc2)n1` [Example 158, 2-[4-{2-Amino-6-(2-benzyloxy-5-chloro-phenyl)-pyrimidin4-ylamino]-phenyl}-ethanol], the pIC50 was 7.80.

For `CCCCOc1ccc(Br)cc1-c1cc(Nc2ccc(Cl)cc2)nc(N)n1` [Example 148, 6-(5-Bromo-2-butoxy-phenyl)-N*4*-(4-chloro-phenyl)-pyrimidine-2,4-diamine], the pIC50 is 8.30.

As to `Cc1ccc(Cl)cc1-c1cc(Nc2ccc3c(c2)C(=O)NC3=O)nc(N)n1` [Example 79, 5-[2-Amino-6-(5-chloro-2-methyl-phenyl)-pyrimidin4-ylamino]-isoindole-1,3-dione], the pIC50 was 6.05.

For the compound `Nc1nc(Nc2ccc(Cl)cc2)cc(-c2cc(Cl)ccc2OCc2ccccc2)n1` [Example 155, 6-(2-Benzyloxy-5-chloro-phenyl)-N*4*-(4-chloro-phenyl)-pyrimidine-2,4-diamine], the pIC50 is 8.40.

As for `Cc1ccc(Cl)cc1-c1cc(Nc2ccc(C#N)cc2)nc(N)n1` [Example 32, 4-[2-Amino-6-(5-chloro-2-methyl-phenyl)-pyrimidin4-ylamino]-benzonitrile], the pIC50 was 7.42.
